Data as given in patent US4642341A, “Carbapenem antibiotics” (priority 1985, dated 1987).
≈ marks a conversion by molar mass, not a printed value. Like-named read-outs stand apart in the source and are kept apart here.

What was measured:
S. pneumoniae A-9585 = assay: Minimum Inhibitory Concentration, tube dilution; assay type: cell-based; settings: Streptococcus pneumoniae, A9585, overnight 37° C.; table 6
S. pyogenes A-9604 = assay: Minimum Inhibitory Concentration, tube dilution; assay type: cell-based; settings: Streptococcus pyogenes, A9604, overnight 37° C.; table 6
S. aureus A-9537 = assay: Minimum Inhibitory Concentration, tube dilution; assay type: cell-based; settings: Staphylococcus aureus, table 6, read-out: MIC
[1] = tested on: S. aureus A-9606 (Pen-res.); assay: Minimum Inhibitory Concentration, tube dilution; assay type: cell-based; settings: Staphylococcus aureus, Pen-res; table 6
S. faecalis A20688 = assay: Minimum Inhibitory Concentration, tube dilution; assay type: cell-based; settings: Enterococcus faecalis, A20688, overnight 37° C., table 6
E. coli A15119 = assay: Minimum Inhibitory Concentration, tube dilution; assay type: cell-based; settings: Escherichia coli, A15119, overnight 37° C.; table 6
E. coli A20341-1 = assay: Minimum Inhibitory Concentration, tube dilution; assay type: cell-based; settings: Escherichia coli, A203411, overnight 37° C.; table 6
K. pneumoniae A20468 = assay: Minimum Inhibitory Concentration, tube dilution; assay type: cell-based; settings: Klebsiella pneumoniae, A20468, overnight 37° C.; table 6
P. mirabilis A-9900 = assay: Minimum Inhibitory Concentration, tube dilution; assay type: cell-based; settings: Proteus mirabilis, A9900, overnight 37° C.; table 6
P. vulgaris A21559 = assay: Minimum Inhibitory Concentration, tube dilution; assay type: cell-based; settings: Proteus vulgaris, A21559, overnight 37° C.; table 6
P. rettgeri A22424 = assay: Minimum Inhibitory Concentration, tube dilution; assay type: cell-based; settings: Providencia rettgeri, overnight 37° C.
S. marcescens A20019 = assay: Minimum Inhibitory Concentration, tube dilution; assay type: cell-based; settings: Serratia marcescens, A20019, overnight 37° C.; table 6
P. aeruginosa A-9843A = assay: Minimum Inhibitory Concentration, tube dilution; assay type: cell-based; settings: Pseudomonas aeruginosa, A9843A, overnight 37° C.; table 6; read-out: MIC
P. aeruginosa A21213 = assay: Minimum Inhibitory Concentration, tube dilution; assay type: cell-based; settings: Pseudomonas aeruginosa, A21213, overnight 37° C.; table 6; read-out: MIC
B. fragilis A22862 = assay: Minimum Inhibitory Concentration, tube dilution; assay type: cell-based; settings: Bacteroides fragilis, overnight 37° C., table 6
E. cloacae A9659 = assay: Minimum Inhibitory Concentration, tube dilution; assay type: cell-based; settings: Enterobacter cloacae, A9659, overnight 37° C., table 6
P. aeruginosa A9843A = assay: animal or person; assay type: in vivo, mice; settings: Pseudomonas aeruginosa, in Mus musculus, im, read-out: PD50 /treatment
Text: The PD50 (dose in mg/kg required to give protection to 50% of the infected mice) is indicated.

K. pneumoniae A-9664 = assay: Minimum Inhibitory Concentration, tube dilution; assay type: cell-based; settings: Klebsiella pneumoniae, A9664, overnight 37° C.; table 6
[2] = Half-life in phosphate buffer pH 7.4; assay type: physicochemical
Experimental: To a solution of p-nitrobenzyl 3-[2-(1-pyridinium)ethylthio)]-6α[1-(R)-hydroxyethyl]-7-oxo-1-azabicyclo(3.2.0)hept-2-ene-carboxylate diphenylphosphate (0.16 g, 0.22 mmol) in wet tetrahydrofuran (10mL) was added ether (10mL), potassium phosphate monobasic-sodium hydroxide buffer pH 7.4 (16 mL, 0.05 M) and 10% palladium on charcoal (0.16 g). The resulting mixture was hydrogenated under 40 psi for 1 h at 25° C. The two phases were separated and the organic phase was extracted with water (2×3 mL). The aqeuous solutions were combined, washed with ether (2×10 ml) and poured on top of a column (1.5×6.2 cm) pf μ-bondapak C-18 after the traces of organic solvents have been removed under vacuum. Elution of the column with water gave after lyophylization of the appropriate fractions a yellowish powder 0.062 g (84%), ir (KBr) .nu.max : 3700-3000 (OH), 1755 (C--O of β-lactam), 1630 (pyridinium), 1590 cm^-1 (carboxylate), ^1 Hmr (D2 O): 1.22 (3H, d, J=6.4 Hz, CH3 CHOH), 2.92 (d, J=9.1 Hz, H-4), 2.97 (d, J=9.1 Hz, H-4), 3.20 (dd, J=2.5 Hz, J=6.1 Hz, H-6), 3.44 (t, J=6.0 Hz, CH2 S), 3.93 (dd, J=9.1 Hz, J=2.5 Hz, H-5), 4.82 (t, J=6.0 Hz, CH2 N^+), 8.04 (m, Hm of pyridinium), 8.5 (m, Hp of pyridinium), 8.82 (dd, J=3.2. Hz, J=1.1 Hz, Ho of pyridinium), uv (H2 O) λ max : 259 (ε5800), 296 (ε7030) mμ, .tau.1/2 =13.5 h (measured at a concentration of 10^-4 M in phosphate buffer pH 7.4 at 36.8° C.).

SMILES | MIC (S. pneumoniae A-9585) [µg/mL] | MIC (S. pyogenes A-9604) [µg/mL] | MIC (S. aureus A-9537; A9537, 50% serum) [µg/mL] | MIC (S. aureus A-9537; A9537, overnight 37° C.) [µg/mL] | MIC [1] [µg/mL] | MIC (E. coli A15119) [µg/mL] | MIC (E. coli A20341-1) [µg/mL] | MIC (P. mirabilis A-9900) [µg/mL] | MIC (P. vulgaris A21559) [µg/mL] | MIC (S. marcescens A20019) [µg/mL] | MIC (P. aeruginosa A-9843A) [µg/mL] | MIC (P. aeruginosa A21213) [µg/mL] | MIC (B. fragilis A22862) [µg/mL] | ED50 (P. aeruginosa A9843A) [mg/kg] | MIC (K. pneumoniae A-9664) [µg/mL] | MIC (S. faecalis A20688; read-out: MIC) [µg/mL] | also measured
CSc1cc[n+](CCSC2=C(C(=O)[O-])N3C(=O)[C@H]([C@@H](C)O)[C@H]3C2)cc1 [Example 9, (5R) 3-[2-(4-methylthiopyridinio)ethylthio]-(6S)-[(1R)-hydroxyethyl]-7-oxo-1-azabicyclo[3.2.0]hept-2-ene-2-carboxylate] | 0.002 (≈ 0.00526 µM) | 0.001 (≈ 0.00263 µM) | 0.016 (≈ 0.0421 µM) | 0.008 (≈ 0.021 µM) | 0.008 (≈ 0.021 µM) | 0.03 (≈ 0.0788 µM) | 0.03 (≈ 0.0788 µM) | 0.06 (≈ 0.158 µM) | 0.016 (≈ 0.0421 µM) | 0.06 (≈ 0.158 µM) | 4 (≈ 10.5 µM) | 2 (≈ 5.26 µM) | 0.06 (≈ 0.158 µM) | 3.1 | – | – | MIC (S. faecalis A20688): 0.25 µg/mL (≈ 0.657 µM); MIC (K. pneumoniae A20468): 0.25 µg/mL (≈ 0.657 µM); MIC (P. rettgeri A22424; table 6): 0.25 µg/mL (≈ 0.657 µM); MIC (E. cloacae A9659): 0.25 µg/mL (≈ 0.657 µM)
COc1ccc[n+](CCSC2=C(C(=O)[O-])N3C(=O)[C@H]([C@@H](C)O)[C@H]3C2)c1 [Example 10, 3-[2-(3-methoxy-1-pyridinium)ethylthio]-6α-[1'-(R)-hydroxyethyl]-7-oxo-1-azabicyclo(3.2.0)-hept-2-ene-2-carboxylate] | 0.002 (≈ 0.00549 µM) | 0.002 (≈ 0.00549 µM) | 0.06 (≈ 0.165 µM) | 0.008 (≈ 0.022 µM) | 0.016 (≈ 0.0439 µM) | 0.03 (≈ 0.0823 µM) | – | – | 0.06 (≈ 0.165 µM) | – | 4 (≈ 11 µM) | 1 (≈ 2.74 µM) | – | 1.8 | 0.06 (≈ 0.165 µM) | – | half-life ([2]; 0.1 m phosphate buffer, pH 7.4, T1/2 (half-life)): 20 h
CSc1ccc[n+](CCSC2=C(C(=O)[O-])N3C(=O)[C@H]([C@@H](C)O)[C@H]3C2)c1 [Example 11, (5R,6S)-3-[[2-(3-methylthiopyridinio)ethyl]thio]-6-[1-(R)-hydroxyethyl]-7-oxo-1-azabicyclo[3.2.0]hept-2-ene2-carboxylate] | 0.001 (≈ 0.00263 µM) | 0.001 (≈ 0.00263 µM) | 0.03 (≈ 0.0788 µM) | 0.004 (≈ 0.0105 µM) | 0.008 (≈ 0.021 µM) | 0.03 (≈ 0.0788 µM) | 0.03 (≈ 0.0788 µM) | – | 0.03 (≈ 0.0788 µM) | 0.06 (≈ 0.158 µM) | 4 (≈ 10.5 µM) | 1 (≈ 2.63 µM) | 0.06 (≈ 0.158 µM) | 2.4 | 0.06 (≈ 0.158 µM) | 0.25 (≈ 0.657 µM) | MIC (P. rettgeri A22424; table 6, read-out: MIC): 0.25 µg/mL (≈ 0.657 µM); MIC (E. cloacae A9659; read-out: MIC): 0.06 µg/mL (≈ 0.158 µM); half-life ([2]; phosphate buffer, pH 7.4, 36.8° C., read-out: t1/2 (half-life) (converted)): 20 h
CSc1n(C)cc[n+]1CCSC1=C(C(=O)[O-])N2C(=O)[C@H]([C@@H](C)O)[C@H]2C1 [Example 13, (5R, 6S)-3-[2-(2-methylthio-3-methylimidazolio)ethyl-thio]-6-[1-(R)-hydroxyethyl]-7-oxo-1-azabicyclo[3.2.0]hept-2-ene-2-carboxylate] | 0.001 (≈ 0.00261 µM) | 0.002 (≈ 0.00522 µM) | 0.03 (≈ 0.0782 µM) | 0.008 (≈ 0.0209 µM) | 0.03 (≈ 0.0782 µM) | 0.03 (≈ 0.0782 µM) | 0.03 (≈ 0.0782 µM) | 0.03 (≈ 0.0782 µM) | 0.03 (≈ 0.0782 µM) | 0.06 (≈ 0.156 µM) | 32 (≈ 83.4 µM) | 2 (≈ 5.22 µM) | – | – | – | 0.5 (≈ 1.3 µM) | –
